# Assay results as given in the OligoGym collection.
# HELM strings list units from the 5' end as sugar, base in round brackets, then linkage (d deoxyribose, r ribose, m 2'-O-methyl, p phosphodiester). Strings are as the collection lists them; they lack the last nucleoside at the 3' end of the tested compound. [moe] = 2'-O-(2-methoxyethyl) (MOE); [sp] = phosphorothioate linkage; [m5C] = 5-methylcytosine
# Biological target: SCN2A
# Experiment: mouse, dose not given
# Details: ASO
row,Substance,3 h FOB score
1,RNA1{[moe](T)[sp].[moe](T)p.[moe]([m5C])p.[moe](T)p.[moe](A)p.d(T)[sp].d(T)[sp].d(T)[sp].d(T)[sp].d(A)[sp].d(T)[sp].d(A)[sp].d(A)[sp].d(A)[sp].d(T)[sp].[moe](G)p.[moe]([m5C])p.[moe]([m5C])[sp].[moe](G)}$$$$ (last 3' nucleoside missing),0 score 0-7
2,RNA1{[moe](T)[sp].[moe](T)p.[moe]([m5C])p.[moe](T)p.[moe](G)p.[moe]([m5C])p.d(A)[sp].d(T)[sp].d(G)[sp].d(T)[sp].d(A)[sp].d(A)[sp].d([m5C])[sp].d([m5C])[sp].d(T)[sp].d(T)[sp].[moe](T)p.[moe](A)[sp].[moe](T)}$$$$ (last 3' nucleoside missing),0 score 0-7
3,RNA1{[moe](T)[sp].[moe](T)p.[moe]([m5C])p.[moe](T)p.[moe](G)p.d([m5C])[sp].d(A)[sp].d(T)[sp].d(G)[sp].d(T)[sp].d(A)[sp].d(A)[sp].d([m5C])[sp].d([m5C])[sp].d(T)[sp].[moe](T)p.[moe](T)p.[moe](A)[sp].[moe](T)}$$$$ (last 3' nucleoside missing),1 score 0-7
4,RNA1{[moe](T)[sp].[moe](T)p.[moe]([m5C])p.[moe](T)p.d(A)[sp].d(T)[sp].d(T)[sp].d(T)[sp].d(T)[sp].d(A)[sp].d(T)[sp].d(A)[sp].d(A)[sp].d(A)[sp].[moe](T)p.[moe](G)p.[moe]([m5C])p.[moe]([m5C])[sp].[moe](G)}$$$$ (last 3' nucleoside missing),1 score 0-7
5,RNA1{[moe](T)[sp].[moe](T)p.[moe]([m5C])p.[moe](T)p.d(G)[sp].d([m5C])[sp].d(A)[sp].d(T)[sp].d(G)[sp].d(T)[sp].d(A)[sp].d(A)[sp].d([m5C])[sp].d([m5C])[sp].[moe](T)p.[moe](T)p.[moe](T)p.[moe](A)[sp].[moe](T)}$$$$ (last 3' nucleoside missing),1 score 0-7
6,RNA1{[moe](T)[sp].[moe]([m5C])p.[moe](A)p.[moe](G)p.[moe]([m5C])p.[moe](A)p.d(T)[sp].d(G)[sp].d(T)[sp].d(T)[sp].d(T)[sp].d(A)[sp].d(T)[sp].d([m5C])[sp].d(T)[sp].d(T)[sp].[moe](A)p.[moe](G)[sp].[moe](T)}$$$$ (last 3' nucleoside missing),0 score 0-7
7,RNA1{[moe](T)[sp].[moe]([m5C])p.[moe](A)p.[moe](G)p.d([m5C])[sp].d(A)[sp].d(T)[sp].d(G)[sp].d(T)[sp].d(T)[sp].d(T)[sp].d(A)[sp].d(T)[sp].d([m5C])[sp].[moe](T)p.[moe](T)p.[moe](A)p.[moe](G)[sp].[moe](T)}$$$$ (last 3' nucleoside missing),2.33 score 0-7
8,RNA1{[moe](T)[sp].[moe]([m5C])p.[moe](A)p.[moe](T)p.[moe](G)p.[moe]([m5C])p.d(A)[sp].d(T)[sp].d(A)[sp].d(A)[sp].d(T)[sp].d([m5C])[sp].d([m5C])[sp].d([m5C])[sp].d(A)[sp].d(T)[sp].[moe](T)p.[moe](A)[sp].[moe](T)}$$$$ (last 3' nucleoside missing),0 score 0-7
9,RNA1{[moe](T)[sp].[moe]([m5C])p.[moe](A)p.[moe](T)p.[moe](G)p.d([m5C])[sp].d(A)[sp].d(T)[sp].d(A)[sp].d(A)[sp].d(T)[sp].d([m5C])[sp].d([m5C])[sp].d([m5C])[sp].d(A)[sp].[moe](T)p.[moe](T)p.[moe](A)[sp].[moe](T)}$$$$ (last 3' nucleoside missing),0 score 0-7
10,RNA1{[moe](T)[sp].[moe]([m5C])p.[moe](A)p.[moe](T)p.d(G)[sp].d([m5C])[sp].d(A)[sp].d(T)[sp].d(A)[sp].d(A)[sp].d(T)[sp].d([m5C])[sp].d([m5C])[sp].d([m5C])[sp].[moe](A)p.[moe](T)p.[moe](T)p.[moe](A)[sp].[moe](T)}$$$$ (last 3' nucleoside missing),0 score 0-7
